Patent publication US5817651A, “3-arylcarbonyl-1-(C-attached-N-heteryl)-1H-indoles” (Sanofi, priority 1997, dated 1998)
Structures can show the parent of a compound that is named as a salt.

Key:
[1] = tested on: acetylcholine-induced abdominal constriction; assay: acetylcholine-induced abdominal constriction test (ACH); assay type: in vivo; conditions: Table 9, Examples, mice, no route marked in the cell; for ED50: Mus musculus, read-out: ACH ED50
Source text: J. Pharmacol. Chemotherap. 32, 295 (1968); a modification of the anti-bradykinin test, which is also a primary analgesic screening procedure, described by Berkowitz et al., J. Pharmacol. Exptl. Therap. 177, 500-508 (1971), Blane et al., J. Pharm. Pharmacol. 19, 367-373 (1967), Botha et al., Eur. J. Pharmacol. 6, 312-321 (1969) and Deffenu et al., J. Pharm. Pharmacol. 18, 135 (1966); and the Randall-Selitto analgesic test described by Randall and Selitto, Arch. Int. Pharmacodyn., 111, 409-419 (1957).
Data in the developing adjuvant arthritis (AA) and plasma fibronectin (FN) assays are expressed as percent inhibition, i.e. inhibition of non-injected paw inflammation (NIP) and injected paw (RPV) and lowering of plasma fibronectin, the asterisks * and ** indicating statistical significance at the p<0.01 and p<0.05 levels, respectively. […] Non-statistically significant results are recorded as "------ ". In the acetylcholine-induced abdominal constriction test, the test compounds were administered either as suspensions in gum tragacanth (GT) or as aqueous solutions prepared by addition of just sufficient dilute aqueous methanesulfonic acid (MS) or dilute aqueous lactic acid (LA) to dissolve the compound. The compounds are identified by the example number above where their preparations are described. All data in the anti-bradykinin, rat writhing and Randall-Selitto tests were obtained on oral administration.

[2] = tested on: acetic acid-induced writhing; assay: acetic acid-induced writhing assay in the rat (RW); assay type: in vivo; conditions: for ED50: Rattus norvegicus, po; for ED50 / RW ED50: oral administration
Experimental: Data in the developing adjuvant arthritis (AA) and plasma fibronectin (FN) assays are expressed as percent inhibition, i.e. inhibition of non-injected paw inflammation (NIP) and injected paw (RPV) and lowering of plasma fibronectin, the asterisks * and ** indicating statistical significance at the p<0.01 and p<0.05 levels, respectively. Compounds are considered active at p<0.05 level. Non-statistically significant results are recorded as "------ ". In the acetylcholine-induced abdominal constriction test, the test compounds were administered either as suspensions in gum tragacanth (GT) or as aqueous solutions prepared by addition of just sufficient dilute aqueous methanesulfonic acid (MS) or dilute aqueous lactic acid (LA) to dissolve the compound. The compounds are identified by the example number above where their preparations are described. All data in the anti-bradykinin, rat writhing and Randall-Selitto tests were obtained on oral administration.

Question: How did the ED50 [1] turn out when `COc1ccc(C(=O)c2c(C)n(CC3CCCN3)c3ccccc23)cc1.Cl` (stereo not shown) [Example 8A, 2-methyl-3-(4-methoxybenzoyl)-1-[(2-pyrrolidinyl)methyl]-1H-indole hydrochloride] was run?
Answer: Its ED50 is 41 mg/kg.

Question: What about the ED50 [2] of the same compound?
Answer: Its ED50 is 25 mg/kg.

Question: `COc1ccc(C(=O)c2c(C)n(CC3CNCCN3)c3ccccc23)cc1` (stereo not shown) [Example 4C] was tested. Which ED50 [1] did it give?
Answer: Its ED50 is 22 mg/kg.

Question: And the ED50 [2]?
Answer: Its ED50 is 20 mg/kg.

Question: What does the source list for `COc1ccc(C(=O)c2c(C)n(CC3CN(C)CCO3)c3ccccc23)cc1` (stereo not shown) [Example 1A, 1-[(4-methyl-2-morpholinyl)methyl]-2-methyl-3-(4-methoxybenzoyl)-1H-indolehydrochloride]?
Answer: ED50 [1]: 9 mg/kg; ED50 [2]: 3 mg/kg

Question: With `COc1ccc(C(=O)c2c(C)n(CC3CN(C)CCN3C)c3ccccc23)cc1` (stereo not shown) [Example 2V] as the compound, how does the ED50 [1] read?
Answer: Its ED50 is 20 mg/kg.

Question: And the ED50 [2]?
Answer: The ED50 was 15 mg/kg.

Question: How did the ED50 [1] turn out when `COc1ccc(C(=O)c2c(C)n(CC3CSCCN3C)c3ccccc23)cc1` (stereo not shown) [Example 3A, 1-[(4-methyl-3-thiomorpholinyl)methyl]-2-methyl-3-(4-methoxybenzoyl)-1H-indole] was run?
Answer: Its ED50 is 33 mg/kg.

Question: What about the ED50 [2] of the same compound?
Answer: Its ED50 is 13 mg/kg.

Question: Which results are given for `COc1ccc(C(=O)c2c(C)n(CC3CCN(C)C3)c3ccccc23)cc1` (stereo not shown) [Example 2AI]?
Answer: ED50 [1]: 11 mg/kg; ACH ED50 [1]: 13 mg/kg; ED50 [2]: 4 mg/kg

Question: Which results are given for `CCN1CCCC(n2c(C)c(C(=O)c3ccc(OC)cc3)c3ccccc32)C1` (stereo not shown) [Example 2AE]?
Answer: ED50 [1]: 26 mg/kg; RW percent inhibition at dose 30 ([2]; oral, dose level 30): 15%

Question: Which ED50 [1] does the source give for `COc1ccc(C(=O)c2c(C)n(CC3(O)CCN(C)CC3)c3ccccc23)cc1` [Example 5, 2-methyl-3-(4-methoxybenzoyl)-1-[(1-methyl-4-hydroxy-4-piperidinyl)methyl]-1H-indole] here?
Answer: Its ED50 is 23 mg/kg.

Question: And the ED50 [2]?
Answer: Its ED50 is 9.1 mg/kg.

Question: What does the source list for `CCN1CCCC(Cn2c(C)c(C(=O)c3ccc(OC)cc3)c3ccccc32)C1` (stereo not shown) [Example 2L]?
Answer: ED50 [1]: 11 mg/kg; ED50 [2]: 2 mg/kg

Question: How did the ED50 [1] turn out when `Cc1c(C(=O)c2ccccc2F)c2ccccc2n1CC1CN(C)CCO1` (stereo not shown) [Example 1F] was run?
Answer: Its ED50 is 22 mg/kg.

Question: What about the ED50 [2] of the same compound?
Answer: The ED50 was 26 mg/kg.

Question: What does the source list for `COc1ccc(C(=O)c2c(C)n(CC3CCCN3C)c3ccccc23)cc1` (single isomer, unassigned) [2E(d), (d)1-(1-methyl-2-pyrrolidinylmethyl)-2-methyl-3-(4-methoxy-benzoyl)-1H-inole hydorochloride]?
Answer: ED50 [1]: 47 mg/kg; ACH ED50 [1]: 36 mg/kg; RW ED50 [2]: 30 mg/kg

Question: For `CC(C1CCCN(C)C1)n1cc(C(=O)c2ccccc2F)c2ccccc21` (stereo not shown) [Example 4G], which “ACH ED50” value [1] is on record?
Answer: Its value is 19 mg/kg.

Question: And the “RW ED50” value [2]?
Answer: The value was 7 mg/kg.

Question: Which results are given for `Cc1c(C(=O)c2ccccc2)c2ccccc2n1CC1CN(C)CCO1` (stereo not shown) [Example 1C]?
Answer: ED50 [1]: 21 mg/kg; ED50 [2]: 10 mg/kg

Question: Which ED50 [1] does the source give for `Cc1c(C(=O)c2ccccc2F)c2ccccc2n1CC1CCCN(C)C1` (stereo not shown) [Example 1J] here?
Answer: The ED50 was 32 mg/kg.

Question: And the ED50 [2]?
Answer: The ED50 was 45 mg/kg.

Question: Which “ACH ED50” value ([1]; listed as 2AG(d)) does the source give for `COc1ccc(C(=O)c2c(C)n(C3CCCN(C)C3)c3ccccc23)cc1` (stereo not shown) [2AG(a)] here?
Answer: The value was 22 mg/kg.

Question: What about the ED50 [2] of the same compound?
Answer: Its ED50 is 9 mg/kg.

Question: How did the ED50 [1] turn out when `Cc1c(C(=O)c2ccc(N)cc2)c2ccccc2n1CC1CCCN(C)C1` (stereo not shown) [Example 9, 2-methyl-3-(4-aminobenzoyl)-1-[(1-methyl-3-piperidinyl)methyl]-1H-indole hydrochloride hemihydrate] was run?
Answer: The ED50 was 12 mg/kg.

Question: What about the ED50 [2] of the same compound?
Answer: The ED50 was 9 mg/kg.
